One may read the EC50 as the concentration that produces a half-maximal response. The IC50 is the concentration that inhibits the measured activity by half.

Molecules are shown by their SMILES.

The text below walks through data of patent publication US9770446B2, “Piperidine urea derivatives” (MERCK PATENT GMBH, priority 2013, dated 2017).

One test relates to Tankyrase. Briefly: Cellular inhibition of Tankyrase: Axin2 level in DLD1 cells (Luminex). Conditions: 24 hours, Axin2 increase, read-out: EC50 [M] TNKS cellular assay. It is filed as cell-based. On the procedure:
Measurement of Cellular Inhibition of Tankyrase
Since Tankyrases have been described to modulate cellular level of Axin2 (Huang et al., 2009; Nature) the increase of Axin2 level is used as read-out for determination of cellular inhibition of Tankyrases in a Luminex based assay.
Cells of the colon carcinoma cell line DLD1 are plated in 96 well plates with 1.5×10^4 cells per well. Next day, cells are treated with a serial dilution of test compound in seven steps as triplicates with a final DMSO concentration of 0.3%. After 24 hours, cells are lysed in lysis buffer (20 mM Tris/HCl pH 8.0, 150 mM NaCl, 1% NP40, 10% Glycerol) and lysates are cleared by centrifugation through a 96 well filter plate (0.65 μm). Axin2 protein is isolated from cell lysates by incubation with a monoclonal anti-Axin2 antibody (R&D Systems #MAB6078) that is bound to fluorescent carboxybeads. Then, bound Axin2 is specifically detected with a polyclonal anti-Axin2 antibody (Cell Signaling #2151) and an appropriate PE-fluorescent secondary antibody. The amount of isolated Axin2 protein is determined in a Luminex^200 machine (Luminex Corporation) according to the manufacturer's instruction by counting 100 events per well. Inhibition of Tankyrase by test compounds results in higher levels of Axin2 which directly correlates with an increase of detectable fluorescence. As controls cells are treated with solvent alone (neutral control) and with a Tankyrase reference inhibitor IWR-2 (3E-06 M) which refers as control for maximum increase of Axin2. For analysis, the obtained data are normalized against the untreated solvent control and fitted for determination of the EC50 values using the Assay Explorer software (Accelrys).

Test [1] addresses T1, GST-tagged Tnks-1 (1023-1327 aa) (Homo sapiens, UniProt O95271).
T1 construct: GST-tagged Tnks-1 (1023-1327 aa, prepared in-house); made in house
Briefly: TNKS1 activity ELISA (autoparsylation assay). Type of test: biochemical. On the procedure:
(§1) Description of the TNKS1 and TNKS2 ELISA Assay
(§2) Biochemical Activity Testing of TNKS 1 and 2: Activity ELISA (Autoparsylation Assay)
(§3) For analysis of autoparsylation activity of TNKS 1 and 2 an activity ELISA iss performed: In the first step GST tagged TNKS is captured on a Glutathione coated plate. Then the activity assay with biotinylated NAD is performed in the absence/presence of the compounds. During the enzymatic reaction GST tagged TNKS transfers biotinylated ADP-ribose to itself from biotinylated NAD as co-substrate. For the detection streptavidin-HRP conjugate is added that binds to the biotinylated TNKS and is thereby captured to the plates. The amount of biotinylated resp. autoparsylated TNKS is detected with a luminescence substrate for HRP. The level of the luminescence signal correlates directly with the amount of autoparsylated TNKS and therefore with activity of TNKS.
(§4) The activity ELISA is performed in 384 well Glutathione coated microtiter plates (Express capture Glutathione coated plate, Biocat, Heidelberg, Germany). The plates are pre-equilibrated with PBS. Then the plates are incubated with 50 μl 20 ng/well GST-tagged Tnks-1 (1023-1327 aa, prepared in-house), respectively GST-tagged Tnks-2 (873-1166 aa, prepared in-house) in assay buffer (50 mM HEPES, 4 mM Mg-chloride, 0.05% Pluronic F-68, 2 mM DTT, pH 7.7) overnight at 4° C. The plates are washed 3 times with PBS-Tween-20. The wells are blocked by incubation at room temperature for 20 minutes with 50 μl blocking buffer (PBS, 0.05% Tween-20, 0.5% BSA). Afterwards the plates are washed 3 times with PBS-Tween-20. The enzymatic reaction is performed in 50 μl reaction solution (50 mM HEPES, 4 mM Mg-chloride, 0.05% Pluronic F-68, 1.4 mM DTT, 0.5% DMSO, pH 7.7) with 10 μM bio-NAD (Biolog, Life science Inst., Bremen, Germany) as co-substrate in the absence or presence of the test compound (10 dilution concentrations) for 1 hour at 30° C. The reaction is stopped by 3 times washing with PBS-Tween20. For the detection 50 μl of 20 ng/μl Streptavidin, HRP conjugate (MoBiTec, Göttingen, Germany) in PBS/0.05% Tween-20/0.01% BSA are added and the plates are incubated for 30 minutes at room temperature. After three times washing with PBS-Tween-20 50 μl of SuperSignal ELISA Femto Maximum sensitivity substrate solution (ThermoFisherScientific (Pierce), Bonn, Germany) are added. Following a 1 minute incubation at room temperature luminescence signals are measured with an Envision multimode reader (Perkin Elmer LAS Germany GmbH) at 700 nm. The full value used is the inhibitor-free reaction. The pharmacological zero value used is XAV-939 (Tocris) in a final concentration of 5 μM. The inhibitory values (IC50) are determined using either the program Symyx Assay Explorer® or Condosseo® from GeneData.

A further test addresses T2, His-tagged Parp-1 (Homo sapiens, UniProt P09874).
T2 construct: purchased Enzo Life Sciences GmbH, Lörrach, Germany
Briefly: PARP-1 autoparsylation HTRF assay. It is filed as biochemical. From the text:
Description of the PARP1 Assay
Biochemical Activity Testing of PARP-1: Autoparsylation Assay
The autoparsylation assay is run in two steps: the enzymatic reaction in which His-tagged Parp-1 transfers biotinylated ADP-ribose/ADP-ribose to itself from biotinylated NAD/NAD as co-substrate and the detection reaction where a time resolved FRET between cryptate labelled anti-His antibody bound to the His tag of the enzyme and Xlent® labelled-streptavidin bound the biotin-parsylation residue is analysed. The autoparsylation activity is detectable directly via the increase in HTRF signal.
The autoparsylation assay is performed as 384-well HTRF® (Cisbio, Codolet, France) assay format in Greiner low volume nb 384-well microtiter plates. 35 nM His-tagged Parp-1 (human, recombinant, Enzo Life Sciences GmbH, Lörrach, Germany) and a mixture of 125 nM bio-NAD (Biolog, Life science Inst., Bremen, Germany) and 800 nM NAD as co-substrate are incubated in a total volume of 6 μl (100 mM Tris/HCl, 4 mM Mg-chloride, 0.01% IGEPAL® CA630, 1 mM DTT, 0.5% DMSO, pH 8, 13 ng/μl activated DNA (BPS Bioscience, San Diego, US)) in the absence or presence of the test compound (10 dilution concentrations) for 150 min at 23° C. The reaction is stopped by the addition of 4 μl of the Stop/detection solution (70 nM SA-Xlent® (Cisbio, Codolet, France), 2.5 nM Anti-His-K® (Eu-labelled anti-His, Cisbio, Codolet, France) in 50 mM HEPES, 400 mM KF, 0.1% BSA, 20 mM EDTA, pH 7.0). After 1 h incubation at room temperature the HTRF iss measured with an Envision multimode reader (Perkin Elmer LAS Germany GmbH) at excitation wavelength 340 nm (laser mode) and emission wavelengths 615 nm and 665 nm. The ratio of the emission signals is determined. The full value used is the inhibitor-free reaction. The pharmacological zero value used is Olaparib (LClabs, Woburn, US) in a final concentration of 1 μM. The inhibitory values (IC50) are determined using either the program Symyx Assay Explorer® or Condosseo® from GeneData.
Background: TR-FRET usually uses a lanthanide donor and a delayed reading to cut background.

Test [2] concerns the target T3, GST-tagged Tnks-2 (873-1166 aa) (Homo sapiens, UniProt Q9H2K2).
T3 construct: GST-tagged Tnks-2 (873-1166 aa, prepared in-house); made in house
In words: TNKS2 activity ELISA (autoparsylation assay). It is filed as biochemical. On the procedure:
as §1, §2, §3, §4
A general note: An ELISA detects its analyte on a solid surface through an enzyme-linked reagent.

A further test deals with DLD-1-cancer cells. Conditions: cited from earlier work.
The next test deals with ρ-catenin. Conditions: by increasing the levels of the AXIN1 and AXIN2 proteins; cited from earlier work.

T2 sequence (P09874 whole entry): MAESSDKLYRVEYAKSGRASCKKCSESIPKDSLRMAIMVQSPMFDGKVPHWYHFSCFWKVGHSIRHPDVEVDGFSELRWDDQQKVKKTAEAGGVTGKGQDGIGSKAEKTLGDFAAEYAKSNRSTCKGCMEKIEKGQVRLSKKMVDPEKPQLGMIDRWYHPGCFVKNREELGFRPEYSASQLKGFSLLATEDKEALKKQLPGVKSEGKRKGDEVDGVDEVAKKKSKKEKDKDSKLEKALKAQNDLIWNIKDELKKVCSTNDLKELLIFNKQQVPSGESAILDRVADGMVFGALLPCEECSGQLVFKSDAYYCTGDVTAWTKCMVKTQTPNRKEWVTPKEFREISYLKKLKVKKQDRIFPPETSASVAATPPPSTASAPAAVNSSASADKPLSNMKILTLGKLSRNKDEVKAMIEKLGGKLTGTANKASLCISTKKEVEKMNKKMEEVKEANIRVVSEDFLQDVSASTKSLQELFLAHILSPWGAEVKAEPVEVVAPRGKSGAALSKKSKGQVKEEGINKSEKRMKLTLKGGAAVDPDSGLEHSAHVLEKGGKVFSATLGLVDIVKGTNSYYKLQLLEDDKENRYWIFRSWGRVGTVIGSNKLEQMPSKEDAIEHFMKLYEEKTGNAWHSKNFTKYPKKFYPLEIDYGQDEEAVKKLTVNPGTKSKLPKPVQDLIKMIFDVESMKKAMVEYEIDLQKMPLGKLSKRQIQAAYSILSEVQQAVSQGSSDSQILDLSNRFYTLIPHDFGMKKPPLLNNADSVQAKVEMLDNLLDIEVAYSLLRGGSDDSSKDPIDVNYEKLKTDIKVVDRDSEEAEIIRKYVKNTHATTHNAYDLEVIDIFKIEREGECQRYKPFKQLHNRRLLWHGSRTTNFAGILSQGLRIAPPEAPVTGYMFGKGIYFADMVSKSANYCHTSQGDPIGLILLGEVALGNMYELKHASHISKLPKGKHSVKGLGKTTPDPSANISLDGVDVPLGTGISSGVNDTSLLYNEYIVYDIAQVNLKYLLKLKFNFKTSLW
T1 sequence (O95271 1023-1327): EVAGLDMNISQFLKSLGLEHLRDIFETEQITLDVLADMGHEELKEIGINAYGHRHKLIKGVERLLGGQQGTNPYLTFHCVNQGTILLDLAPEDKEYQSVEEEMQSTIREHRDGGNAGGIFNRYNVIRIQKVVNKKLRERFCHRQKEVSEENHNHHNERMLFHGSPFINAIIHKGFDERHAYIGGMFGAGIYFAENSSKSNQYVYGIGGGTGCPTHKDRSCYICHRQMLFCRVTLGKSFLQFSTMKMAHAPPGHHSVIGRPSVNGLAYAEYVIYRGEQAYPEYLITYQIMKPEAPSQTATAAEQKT
T3 sequence (Q9H2K2 873-1166): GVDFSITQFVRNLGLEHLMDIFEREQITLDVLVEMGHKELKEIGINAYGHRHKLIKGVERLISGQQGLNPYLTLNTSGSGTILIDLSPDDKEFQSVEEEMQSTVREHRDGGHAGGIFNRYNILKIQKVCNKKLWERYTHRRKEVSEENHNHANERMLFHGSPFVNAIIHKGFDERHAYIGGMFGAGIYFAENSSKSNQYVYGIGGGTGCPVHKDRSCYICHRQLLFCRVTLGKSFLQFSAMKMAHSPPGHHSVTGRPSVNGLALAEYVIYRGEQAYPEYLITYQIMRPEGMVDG

With `CCOC(=O)CN(C(=O)N1CCC(C(=O)c2ccccc2)CC1)c1ccccc1` [Compound A39, [(4-benzoyl-piperidine-1-carbonyl)-phenyl-amino]-acetic acid ethyl ester], in the test on Tankyrase, the EC50 was 3e-07 to 3e-06 M. For the same compound, the values for the 50% inhibitory concentration (IC50) (in test [1]; against His-tagged Parp-1; in test [2]) were less than 300 nM, 3000 to 50000 nM and less than 300 nM, respectively.

As for `CCn1cc(-c2ccc(C(=O)C3CCN(C(=O)N(C)c4ccc(OC)cc4)CC3)cc2)cn1` [Compound A33, 4-[4-(1-ethyl-1H-pyrazol-4-yl)-benzoyl]-piperidine-1-carboxylic acid (4-methoxy-phenyl)-methyl-amide], the EC50 with Tankyrase is less than 3e-07 M. In addition, the results for the IC50 (in test [1]; on His-tagged Parp-1; in test [2]) were less than 300 nM, 3000 to 50000 nM and less than 300 nM, respectively.

As for `COCCn1cc(-c2ccc(N(C)C(=O)N3CCC(C(=O)c4ccc(OC)cc4)CC3)cc2)cn1` [Compound A31, 4-(4-methoxy-benzoyl)-piperidine-1-carboxylic acid {4-[1-(2-methoxy-ethyl)-1H-pyrazol-4-yl]-phenyl}-methyl-amide], in the test with Tankyrase, the EC50 was less than 3e-07 M. Further, the values for the IC50 (in test [1]; against His-tagged Parp-1; in test [2]) were less than 300 nM, 3000 to 50000 nM and less than 300 nM, respectively.

In the case of `COCCn1cc(-c2ccc(C(=O)C3CCN(C(=O)N(C)c4ccc(-c5cnn(CCOC)c5)cc4)CC3)cc2)cn1` [Compound A32, 4-{4-[1-(2-methoxy-ethyl)-1H-pyrazol-4-yl]-benzoyl}-piperidine-1-carboxylic acid {4-[1-(2-methoxy-ethyl)-1H-pyrazol-4-yl]-phenyl}-methyl-amide], the EC50 in the test with Tankyrase was less than 3e-07 M. In addition, the IC50 was less than 300 nM in test [1], 3000 to 50000 nM against His-tagged Parp-1 and less than 300 nM in test [2].

Consider `Oc1nc(-c2ccc(C(F)(F)F)cc2)nc2c1CSCC2` [XAV939], for which the “growth of DLD-1-cancer cells” value in the test on DLD-1-cancer cells is recorded as “inhibits growth”. Moreover, the “Wnt-stimulated accumulation of ρ-catenin” value in the test with ρ-catenin is “blocked”.

Take `CCn1cc(-c2ccc(N(C)C(=O)N3CCC(C(=O)c4ccc(OC)cc4)CC3)cc2)cn1` [Compound A34, 4-(4-methoxy-benzoyl)-piperidine-1-carboxylic acid [4-(1-ethyl-1H-pyrazol-4-yl)-phenyl]-methyl-amide]: in the test on Tankyrase, the EC50 was less than 3e-07 M. Besides, the IC50 in test [1] was less than 300 nM; against His-tagged Parp-1, 3000 to 50000 nM; in test [2], less than 300 nM.

Consider `COCCn1cc(-c2ccc(C(=O)C3CCN(C(=O)N(C)c4ccc(OC)cc4)CC3)cc2)cn1` [Compound A30, 4-{4-[1-(2-methoxy-ethyl)-1H-pyrazol-4-yl]-benzoyl}-piperidine-1-carboxylic acid (4-methoxy-phenyl)-methyl-amide], for which the concentration for a half-maximal effect (EC50) with Tankyrase was less than 3e-07 M. Further, the IC50 in test [1] was less than 300 nM; against His-tagged Parp-1, 3000 to 50000 nM; in test [2], less than 300 nM.

Regarding `COc1ccc(C(=O)C2CCN(C(=O)N(C)c3ccc(-c4cnn(CCN5CCCC5)c4)cc3)CC2)cc1` [Compound A36, 4-(4-methoxy-benzoyl)-piperidine-1-carboxylic acid methyl-{4-[1-(2-pyrrolidin-1-yl-ethyl)-1H-pyrazol-4-yl]-phenyl}-amide], in the test on Tankyrase, the EC50 was less than 3e-07 M. Besides, the IC50 in test [1] was less than 300 nM; at His-tagged Parp-1 it was 3000 to 50000 nM; in test [2], less than 300 nM.

Consider `COc1ccc(N(C)C(=O)N2CCC(C(=O)c3ccc(-c4cnn(CCN5CCCC5)c4)cc3)CC2)cc1` [Compound A35, 4-{4-[1-(2-pyrrolidin-1-yl-ethyl)-1H-pyrazol-4-yl]-benzoyl}-piperidine-1-carboxylic acid (4-methoxy-phenyl)-methyl-amide], for which the half-maximal effective concentration (EC50) in the test with Tankyrase was less than 3e-07 M. For the same compound, the figures for the IC50 (in test [1]; on His-tagged Parp-1; in test [2]) were less than 300 nM, 3000 to 50000 nM and less than 300 nM, respectively.
